According to PMC5619818, “Exploring Lactobacillus reuteri DSM20016 as a biocatalyst for transformation of longer chain 1,2-diols: Limits with microcompartment” (PLoS ONE, 2017):

T1: PduQ (1,3-propanediol oxidoreductase) (Limosilactobacillus reuteri, UniProt A5VM99)
T1 construct: gene Lreu_1734
T1 sequence (A5VM99 1-373): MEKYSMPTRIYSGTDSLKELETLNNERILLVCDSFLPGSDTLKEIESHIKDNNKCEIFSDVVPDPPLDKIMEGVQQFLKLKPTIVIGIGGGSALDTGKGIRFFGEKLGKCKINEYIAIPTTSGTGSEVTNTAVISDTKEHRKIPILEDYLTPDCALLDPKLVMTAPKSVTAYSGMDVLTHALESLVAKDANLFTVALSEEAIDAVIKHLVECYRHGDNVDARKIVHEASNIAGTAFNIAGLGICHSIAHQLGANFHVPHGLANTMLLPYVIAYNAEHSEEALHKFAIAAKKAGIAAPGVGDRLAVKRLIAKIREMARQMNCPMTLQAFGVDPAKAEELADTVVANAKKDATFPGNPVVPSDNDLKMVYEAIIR

B1: PduQ (1,3-propanediol oxidoreductase) (Limosilactobacillus reuteri subsp. reuteri) (protein)
chain: T1 sequence (A5VM99 1-373)
B2: PduP (coenzyme-A acylating propionaldehyde dehydrogenase) (Limosilactobacillus reuteri subsp. reuteri) (protein)
chain: MQINDIESAVRKILAEELDNASSSSANVAATTDNGHRGIFTNVNDAIAAAKAAQEIYRDKPIAVRQQVIDAIKEGFRPYIEKMAKDIKEETGMGTVEAKIAKLNNALYNTPGPEILEPVVENGDGGMVMYERLPYGVIGAVGPSTNPSETVIANAIMMLAGGNTLYFGAHPGAKNVTRWTIEKMNDFIADATGLHNLVVSIETPTIESVQQMMKHPDIAMLAVTGGPAVVHQAMTSGKKAVGAGPGNPPAMVDATADIDLAAHNIITSASFDNDILCTAEKEVVAESSIKDELIRKMQDEGAFVVNREQADKLADMCIQENGAPDRKFVGKDATYILDQANIPYTGHPVEIICELPKEHPLVMTEMLMPILPVVSCPTFDDVLKTAVEVEKGNHHTATIHSNNLKHINNAAHRMQCSIFVVNGPSYVGTGVADNGAHSGASALTIATPTGEGTCTARTFTRRVRLNSPQGFSVRNWY

Assays:
[1] = target: T1, PduQ (1,3-propanediol oxidoreductase); test: NADH oxidation at […] nm; type: biochemical; details: NADH 0.2 mM, 50 mM potassium phosphate pH 7.0; aldehyde reduction
[2] = target: T2, PduP (coenzyme-A acylating propionaldehyde dehydrogenase) (Limosilactobacillus reuteri, UniProt A5VMA0); test: NADH formation at […] nm; type: biochemical; details: NAD+ 5 mM, HS-CoA 0.43 mM, 50 mM potassium phosphate pH 7.0, 1 mM DTT, 30 °C
T2 construct: gene Lreu_1735

purified protein = substrate: O=CCCO; test: purified protein; type: biochemical, Limosilactobacillus reuteri

Row | Molecule | Km [1] | Km [2] | Km (purified protein; NADH 0.2 mM, 50 mM potassium phosphate pH 7.0, aldehyde reduction) [mM] | Km (purified protein; NAD+ 5 mM, HS-CoA 0.43 mM, 50 mM potassium phosphate pH 7.0, 1 mM DTT, 30 °C) [mM]
1 | CCCCCCCC=O [Octanaldehyde] | Pentanaldehyde (C5)< Hexanaldehyde (C6)< Octanaldehyde (C8) | Pentanaldehyde (C5)< Hexanaldehyde (C6)< Octanaldehyde (C8) | – | –
2 | CCCCCCCCCC=O [Decylaldehyde] | Hexanaldehyde (C6)< Octanaldehyde (C8)< Decylaldehyde (C10) | Hexanaldehyde (C6)< Octanaldehyde (C8)< Decylaldehyde (C10) | – | –
3 | B1 | – | – | 28.7 | –
4 | B2 | – | – | – | 10.1
